Data: patent publication US6737383B1, “Herbicidal oxadiazolidines” (priority 1999, dated 2004)

Assays:
[1] = tested on: crabgrass; assay: Test B pre/postemergence crabgrass; assay type: in vivo, Digitaria sanguinalis
Outline: (§1)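 Herbicidal effect was estimated by eye on a ten-point control scale after plants spent twelve to sixteen days in a greenhouse following soil or foliar treatment. Foliar sprays targeted plants at one to four leaves; all doses were formulated in a non-phytotoxic solvent with surfactant.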

[2] = tested on: wheat; assay: Test B pre/postemergence wheat; assay type: in vivo, Triticum aestivum; conditions: for Plant response rating, Wheat: Rate 250 g/ha
Outline: as §1

[3] = tested on: wild oat; assay: Test B pre/postemergence wild oat; assay type: in vivo, Avena fatua; conditions: for Plant response rating, Wild oats: Rate 250 g/ha
Outline: as §1

[4] = tested on: rice; assay: Test B flood test rice; assay type: in vivo, Oryza sativa
Outline: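 Each value is a visual injury score relative to controls, with 10 meaning complete control and 0 no effect. Evaluation took place twelve to sixteen days after the 2-leaf-stage plants were treated and kept in the greenhouse.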

[5] = tested on: Alexandergrass; assay: Test D Alexandergrass; assay type: in vivo, Brachiaria plantaginea; conditions: Preemergence, 0 to 100 scale
Outline: (§2)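 Scoring used a 0–100 visual injury scale, with 0 meaning no effect and 100 complete control, assessed 14–21 days after application alongside untreated pots. Preemergence treatments went onto sandy loam surfaces of separately potted seeds within a day of sowing.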

[6] = tested on: common groundsel; assay: Test D common groundsel; assay type: in vivo, Senecio vulgaris; conditions: Preemergence, 0 to 100 scale
Outline: as §2

[7] = tested on: goosegrass; assay: Test D goosegrass; assay type: in vivo, Eleusine indica; conditions: Preemergence, 0 to 100 scale
Outline: as §2

[8] = tested on: winter wheat; assay: Test E winter wheat; assay type: in vivo, Triticum aestivum; conditions: Postemergence
Outline: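 Greenhouse-grown plants are treated (postemergence: 1- to 4-leaf stage, sandy loam/potting mix 60:40), then evaluated visually versus untreated controls some 21 to 28 days later.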

[9] = tested on: Green foxtail; assay: Test D green foxtail; assay type: in vivo
Outline: as §2

[10] = tested on: blackgrass; assay: Test E blackgrass; assay type: in vivo, Alopecurus myosuroides; conditions: Preemergence
[11] = tested on: green foxtail; assay: Test E green foxtail; assay type: in vivo, Setaria viridis; conditions: Preemergence
[12] = tested on: Italian ryegrass; assay: Test E Italian ryegrass; assay type: in vivo, Lolium multiflorum; conditions: Preemergence
[13] = tested on: winter wheat; assay: Test E winter wheat; assay type: in vivo, Triticum aestivum; conditions: Preemergence
[14] = tested on: wild oat; assay: Test E wild oat; assay type: in vivo, Avena fatua; conditions: Preemergence
[15] = tested on: winter barley; assay: Test E winter barley; assay type: in vivo, Hordeum vulgare; conditions: Preemergence
[16] = Postemergence, Rate 125 g/ha, scale of 0 to 10 where 0 is no effect and 10 is complete control
[17] = Preemergence, Rate 62 g/ha, scale 0 to 10 (0 no effect, 10 complete control)
[18] = Preemergence, Rate 500 g/ha, scale 0 to 10 (0 no effect, 10 complete control)
[19] = Rate 500 g/ha, Postemergence, scale 0 to 10, 0 no effect, 10 complete control
[20] = Preemergence, Rate 125 g/ha, 0 is no effect, 10 is complete control
[21] = Preemergence, scale of 0 to 10 where 0 is no effect and 10 is complete control
[22] = Rate 62 g/ha, Postemergence, scale of 0 to 10 where 0 is no effect and 10 is complete control
[23] = Postemergence, scale 0 to 10, 0 is no effect, 10 is complete control
[24] = Rate 16 g/ha, 0 no injury, 100 complete control
[25] = Rate 32 g/ha, 0 no injury, 100 complete control
[26] = Rate 64 g/ha, 0 no injury, 100 complete control
[27] = Rate 125 g/ha, 0 no injury, 100 complete control
[28] = Rate 64 g/ha, Preemergence; 0 to 100 scale, 0 no injury, 100 complete control
[29] = Rate 125 g/ha, Preemergence; 0 to 100 scale, 0 no injury, 100 complete control
[30] = Rate 125 g/ha, 0 to 100 scale (0 no effect, 100 complete control)
[31] = Rate 500 g/ha, 0 to 100 scale where 0 is no effect and 100 is complete control

SMILES: C=CCn1c(=O)on(C(=O)N(c2ccc(Cl)cc2)C(C)C)c1=O [Compound 105]
- Crabgrass plant response rating [1, 16]: 7
- Crabgrass plant response rating ([1]; Postemergence, Rate 250 g/ha, scale 0 to 10, 0 no effect, 10 complete control): 7
- Crabgrass plant response rating [1, 17]: 2
- Plant response rating, Crabgrass ([1]; Preemergence, Rate 125 g/ha, scale 0 to 10 (0 no effect, 10 complete control)): 8
- Plant response rating, Crabgrass ([1]; Preemergence, Rate 250 g/ha, scale of 0 to 10 where 0 is no effect and 10 is complete control): 8
- Crabgrass plant response rating [1, 18]: 9
- Crabgrass plant response rating [1, 19]: 9
- Wheat plant response rating [2, 16]: 0
- Wheat plant response rating [2, 17]: 0
- Wheat plant response rating (0 to 10 scale) [2, 20]: 0
- Plant response rating, Wheat [2, 21]: 0
- Wheat plant response rating [2, 18]: 2
- Wheat plant response rating [2, 22]: 0
- Plant response rating, Wheat [2, 23]: 0
- Wheat plant response rating [2, 19]: 2
- Wild oats plant response rating [3, 16]: 0
- Wild oats plant response rating [3, 17]: 2
- Wild oats plant response rating (0 to 10 scale) [3, 20]: 3
- Plant response rating, Wild oats [3, 21]: 3
- Wild oats plant response rating [3, 18]: 9
- Wild oats plant response rating [3, 22]: 0
- Plant response rating, Wild oats [3, 23]: 2
- Wild oats plant response rating [3, 19]: 4
- Rice plant response rating ([4]; Postemergence (flood test species), Rate 125 g/ha, scale of 0 to 10 where 0 is no effect and 10 is complete control): 0
- Rice plant response rating ([4]; Rate 62 g/ha, Postemergence section, flood test species, scale of 0 to 10 where 0 is no effect and 10 is complete control): 0
- Plant response rating, Rice ([4]; Rate 250 g/ha, Postemergence (flood test), scale 0 to 10, 0 is no effect, 10 is complete control): 0
- Rice plant response rating ([4]; Rate 250 g/ha, headed Pre-emergence (flood test species), scale 0 to 10 (0 no effect, 10 complete control)): 0
- Plant response rating, Rice ([4]; Rate 500 g/ha, headed Pre-emergence (flood test species), scale 0 to 10 (0 no effect, 10 complete control)): 0
- Rice plant response rating ([4]; Rate 500 g/ha, listed under Postemergence (flood test species), scale 0 to 10, 0 no effect, 10 complete control): 0
- Rice plant response rating ([4]; Rate 1000 g/ha, Pre-emergence (as headed), scale 0 to 10): 0
- Rice plant response rating ([4]; Rate 2000 g/ha, Pre-emergence (as headed), scale 0 to 10): 0
- Plant response rating, Alexandergrass [5, 24]: 0
- Plant response rating, Alexandergrass [5, 25]: 30
- Plant response rating, Alexandergrass [5, 26]: 85
- Plant response rating, Alexandergrass [5, 27]: 98
- Plant response rating, Alexandergrass ([5]; Rate 250 g/ha): 98
- Plant response rating, Alexandergrass ([5]; Rate 500 g/ha): 100
- Plant response rating, Com. groundsel [6, 24]: 0
- Plant response rating, Com. groundsel [6, 25]: 0
- Plant response rating, Com. groundsel [6, 26]: 0
- Plant response rating, Com. groundsel [6, 27]: 0
- Plant response rating, Com. groundsel ([6]; Rate 250 g/ha): 0
- Plant response rating, Com. groundsel ([6]; Rate 500 g/ha): 80
- Plant response rating, Goosegrass [7, 24]: 85
- Plant response rating, Goosegrass [7, 25]: 98
- Plant response rating, Goosegrass [7, 26]: 98
- Plant response rating, Goosegrass [7, 27]: 98
- Plant response rating, Goosegrass ([7]; Rate 250 g/ha): 100
- Plant response rating, Goosegrass ([7]; Rate 500 g/ha): 100
- Plant response rating, Wheat (winter) ([8]; Rate 125 g/ha, 0 to 100 scale): 10
- Plant response rating, Wheat (winter) ([8]; Rate 250 g/ha, 0 to 100 scale (0 no effect, 100 complete control)): 10
- Plant response rating, Wheat (winter) ([8]; Rate 500 g/ha, 0 to 100 scale, 0 no effect, 100 complete control): 20
- Plant response rating, Green foxtail ([9]; Preemergence; Rate 16 g/ha; 0 to 100 scale, 0 no injury, 100 complete control): 75
- Plant response rating, Green foxtail ([9]; Preemergence; Rate 32 g/ha; 0 to 100 scale, 0 no injury, 100 complete control): 85
- Plant response rating, Green foxtail ([9]; Rate 16 g/ha; Preemergence; 0 to 100 scale, 0 no injury, 100 complete control): 75
- Plant response rating, Green foxtail ([9]; Rate 32 g/ha; Preemergence; 0 to 100 scale, 0 no injury, 100 complete control): 100
- Green foxtail plant response rating [9, 28]: 100
- Plant response rating, Green foxtail [9, 28]: 100
- Green foxtail plant response rating [9, 29]: 100
- Plant response rating, Green foxtail [9, 29]: 100
- Plant response rating, Green foxtail ([9]; Rate 250 g/ha; Preemergence; 0 to 100 scale): 100
- Plant response rating, Green foxtail ([9]; Rate 500 g/ha, Preemergence; 0 to 100 scale): 100
- Plant response rating, Blackgrass [10, 30]: 20
- Plant response rating, Blackgrass ([10]; Rate 250 g/ha, 0 to 100 scale): 50
- Plant response rating, Blackgrass [10, 31]: 50
- Plant response rating, Green foxtail [11, 30]: 55
- Plant response rating, Green foxtail ([11]; Rate 250 g/ha, 0 to 100 scale): 90
- Plant response rating, Green foxtail [11, 31]: 100
- Plant response rating, I. Ryegrass [12, 30]: 30
- Plant response rating, I. Ryegrass ([12]; Rate 250 g/ha, 0 to 100 scale): 30
- Plant response rating, I. Ryegrass [12, 31]: 85
- Plant response rating, Wheat (winter) [13, 30]: 10
- Plant response rating, Wheat (winter) ([13]; Rate 250 g/ha, 0 to 100 scale): 0
- Plant response rating, Wheat (winter) [13, 31]: 10
- Plant response rating, Wild oat [14, 30]: 30
- Plant response rating, Wild oat [14, 31]: 55
- Plant response rating, Barley (winter) [15, 30]: 0
- Plant response rating, Barley (winter) ([15]; Rate 250 g/ha, 0 to 100 scale): 0
- Plant response rating, Barley (winter) [15, 31]: 10
